Data taken from publication PMC12007089, “Applying Isothermal Titration Calorimetry and Saturation Transfer Difference-NMR to Study the Mode of Interaction of Flavan-3-ols with α-Amylase to Understand Their Impact on Starch Hydrolysis” (Journal of Agricultural and Food Chemistry, 2025).
Entries after “also recorded” stand apart in the source; their conditions may differ. Where two headings read alike, the source gives them in different places.

How the values were obtained:
[1] = target: T1, porcine pancreatic α-amylase (Sus scrofa, UniProt P00690); assay: 1H NMR of aggregation of PC C1 with α-amylase; type: binding; settings: for adsorption of PC C1 on the surface of α-amylase: 1 mM (0.75 μmol) PC C1; for PC C1 signal intensities after addition of α-amylase: 275 K
T1 sequence (P00690 16-511): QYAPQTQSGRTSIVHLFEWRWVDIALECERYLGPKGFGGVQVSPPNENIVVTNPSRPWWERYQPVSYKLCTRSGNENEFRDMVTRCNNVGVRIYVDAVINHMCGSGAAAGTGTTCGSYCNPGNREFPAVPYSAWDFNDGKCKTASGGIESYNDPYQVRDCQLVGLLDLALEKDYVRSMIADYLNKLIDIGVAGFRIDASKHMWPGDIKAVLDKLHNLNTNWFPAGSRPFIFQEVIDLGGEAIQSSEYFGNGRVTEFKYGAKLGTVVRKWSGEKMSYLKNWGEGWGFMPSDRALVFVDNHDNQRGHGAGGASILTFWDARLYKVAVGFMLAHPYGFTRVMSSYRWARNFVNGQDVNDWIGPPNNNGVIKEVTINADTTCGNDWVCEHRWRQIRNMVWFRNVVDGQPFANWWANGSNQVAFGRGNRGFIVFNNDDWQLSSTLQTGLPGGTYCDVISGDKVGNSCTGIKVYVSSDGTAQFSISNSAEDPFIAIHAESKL
Description: ^1H NMR experiments were conducted to investigate the aggregation of PC C1 with α-amylase. First, 1 mM PC C1 (0.75 μmol) was measured, and then, α-amylase was added at concentrations of 10 and 20 μM. The relative decrease in intensity of PC C1 signals in the range of 6.866–7.040 ppm (E2′, H6′, B2′, B5′, E5′, E6′, and H5′) was used to calculate the proportion of PC C1 aggregated with α-amylase. Blank measurements were performed with 10 and 20 μM α-amylase dissolved in the same buffer without PC C1. Data were acquired using a Bruker Avance III HD 600 MHz NMR spectrometer equipped with a 5 mm BBFO probe (Smart Probe) with ATM and a z-gradient. Spectra were recorded at 275 K (2 °C) in 0.1 M phosphate buffer/0.04 M NaCl phosphate buffer, pH 7, in D2O:H2O (9:1). The pulse program zgesgp was used with a spectral width of 16 ppm, and all spectra were recorded with 512 scans, an acquisition time of 1.70 s, and a recycle delay (D1) of 1 s. Data were analyzed using TopSpin software (version 4.4.1, Bruker).

α-amylase [2] = tested on: α-amylase; parameters: method as in PMID 28618113; settings: α-amylase concentration of 20 μM in the sample cell; cited from earlier work
α-amylase [3] = target: α-amylase; parameters: method as in PMID 31496243; settings: substrate Gal-G2-CNP, UV-based, cited from earlier work
α-amylase [4] = tested on: α-amylase; parameters: method as in PMID 27132823; settings: cited from earlier work
α-amylase [5] = tested on: α-amylase; parameters: method as in PMID 21495725; settings: cited from earlier work
[6] = target: T1, porcine pancreatic α-amylase; assay: CD spectroscopy, change in secondary structure of α-amylase; settings: for impact on the secondary structure of α-amylase: 90 μM α-amylase, 600 μM flavan-3-ol; for α-helix / β-turn / β-sheet / random coil: α-amylase + polyphenol, 90 µM α-amylase, 600 µM polyphenol; for α-helix: α-amylase alone 8; for β-turn: α-amylase alone 12; for β-sheet: α-amylase alone 32; for random coil: α-amylase alone 48
Description: CD spectra were recorded in the range of 240–190 nm with a bandwidth of 1 nm on a Jasco J-815 CD spectrometer equipped with a Peltier unit from Jasco PTC-4238 and a temperature control (F250, Julabo). For CD experiments, 20 μL respective dilutions of the stock solutions for α-amylase, EC, and PC B2 or mixtures of α-amylase and flavan-3-ol, obtained from the ITC cell after interactions experiments (see Section 2.7; 90 μM α-amylase and 600 μM EC/PC B2), were diluted with 60 μL of 0.2 M KCl and filled bubble-free into a cuvette with a light path of 0.1 mm (Hellma Analytics). At 273 K, 40 independent spectra were accumulated in a continuous scanning mode and a speed of 100 nm/min without baseline correction. Data analysis was performed in Excel according to Kaeswurm et al.[34]

Oc1cc(O)c2c(c1)O[C@H](c1ccc(O)c(O)c1)[C@H](O)[C@H]2c1c(O)cc(O)c2c1O[C@H](c1ccc(O)c(O)c1)[C@H](O)[C@H]2c1c(O)cc(O)c2c1O[C@H](c1ccc(O)c(O)c1)[C@H](O)C2 [PC C1, procyanidin C1]
ratio of PC C1 to α-amylase ([1]; 10 μM α-amylase): 26 | adsorption of PC C1 on the surface of α-amylase ([1]; 10 μM α-amylase): 0.20 µmol | ratio of PC C1 to α-amylase ([1]; 20 μM α-amylase): 18 | adsorption of PC C1 on the surface of α-amylase ([1]; 20 μM α-amylase): 0.28 µmol | PC C1 signal intensities after addition of α-amylase ([1]; 1 mM PC C1, 10 μM α-amylase): 73% | PC C1 signal intensities after addition of α-amylase ([1]; 1 mM PC C1, 20 μM α-amylase): 63%

Oc1cc(O)c2c(c1)O[C@H](c1ccc(O)c(O)c1)[C@H](O)C2 [EC, (−)-Epicatechin]
binding to α-amylase by ITC (α-amylase [2]): weak binder | Ki (α-amylase [3]; read-out: Kic): 88 ± 37 µM | Ki (α-amylase [3]; read-out: Kiu): 231 ± 45 µM | inhibition of α-amylase compared to other phenolic compounds and the apple extract (α-amylase [4]): weakest inhibition | reduction / decrease in α-amylase activity (α-amylase [5]): 10% | impact on the secondary structure of α-amylase [6]: No significant impact; also recorded: did not induce significant changes | α-helix [6]: 14% | β-turn [6]: 15% | β-sheet [6]: 23% | random coil [6]: 48%

Oc1cc(O)c2c(c1)O[C@H](c1ccc(O)c(O)c1)[C@H](O)[C@H]2c1c(O)cc(O)c2c1O[C@H](c1ccc(O)c(O)c1)[C@H](O)C2 [PC B2, procyanidin B2]
impact on the secondary structure of α-amylase [6]: No significant impact; also recorded: did not induce significant changes | α-helix [6]: 14% | β-turn [6]: 15% | β-sheet [6]: 23% | random coil [6]: 48%
